# Data as given in PubChem BioAssay (NCI).
#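 Following 48 hours of exposure in 96-well plates, responses at five concentrations were used to interpolate endpoints linearly. The concentration for full growth arrest is given as TGI.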 Where a SMILES comes first, the peptide text is derived from it. [ ]: non-standard residue; d: D form. The star is where a group is joined. Cbz = O=C(OCc1ccccc1)*; Boc = CC(C)(C)OC(=O)*; Aib = CC(C)(N)C(=O)O; OBn = c1ccc(CO*)cc1; OtBu = CC(C)(C)O*; βAla = NCCC(=O)O
# Legend:
# Experiment in all cases: DTP human tumour cell line panel, 48 h
# SR leukemia = test system: SR leukemia
# SW-620 colon = test system: SW-620 colon
# HS 578T breast = test system: HS 578T breast
# HOP-92 NSCLC = test system: HOP-92 NSCLC
# MDA-N = test system: MDA-N
# HCT-15 colon = test system: HCT-15 colon
# COLO 205 colon = test system: COLO 205 colon
# SK-MEL-2 melanoma = test system: SK-MEL-2 melanoma
# HCC-2998 colon = test system: HCC-2998 colon
SMILES,TGI (SR leukemia) [µM],TGI (SW-620 colon) [µM],TGI (HS 578T breast) [µM],TGI (HOP-92 NSCLC) [µM],TGI (MDA-N) [µM],TGI (HCT-15 colon) [µM],TGI (COLO 205 colon) [µM],TGI (SK-MEL-2 melanoma) [µM],TGI (HCC-2998 colon) [µM]
CC(C)(C)OC(=O)CC(NC(=O)OC(C)(C)C)C(=O)NC(CCCCNC(=O)OCc1ccccc1)C(=O)NC(C)(C)C(=O)NCCC(=O)OCc1ccccc1 (stereo not given) (Boc-D(OtBu)K(Cbz)[Aib][βAla]-OBn; configuration not given here),> 100,> 100,> 100,> 100,> 100,> 100,> 100,,
O=C(Nc1cccc(-c2cn3ccccc3n2)c1)c1ccncc1,71.7,> 100,> 100,> 100,> 100,> 100,88.8,46.5,> 100
COc1cc(C2C3=C(COC3=O)OC(C)(C)Oc3cc4c(cc32)OCO4)cc(OC)c1OC (stereo not given),,> 100,> 100,> 100,3.56,,0.552,70.1,> 100
CCOC(=O)c1c(N2CCOCC2)[nH]c(=O)c(C(c2ccc(OC)cc2)c2c(O)c(C(=O)OCC)c(N3CCOCC3)[nH]c2=O)c1O,> 100,> 100,> 100,> 100,> 100,> 100,> 100,,> 100
C/C=C/[C@H]1O[C@@](OC)([C@@H](C)[C@H](O)[C@H](C)[C@H]2OC(=O)/C(OC)=C/C(C)=C/[C@@H](C)[C@@H](O)[C@@H](C)[C@@H](O)[C@H](C)C/C(C)=C/C=C/[C@@H]2OC)CC(OC2CC(O)C(OC(N)=O)C(C)O2)[C@@H]1C (stereo not given in full),,4.8,17.9,11,0.0486,5.26,1.8,1.15,13.3
NC(N)=N/N=C/c1nc2sccn2c1[N+](=O)[O-],> 100,> 100,98.4,> 100,39.1,> 100,29.7,41.8,
O=c1[nH]nc(Cc2ccc(Cl)cc2)n1O,> 100,> 100,> 100,> 100,> 100,> 100,> 100,> 100,> 100
COc1cc(/C=C2/SC(c3ccccc3)N(c3cccc([N+](=O)[O-])c3)C2=O)cc(OC)c1OC (stereo not given),,> 100,> 100,> 100,78.6,> 100,> 100,> 100,> 100
Cc1ccc2c(c1)OC1Nc3ccccc3C1=C2O (stereo not given),> 100,> 100,> 100,> 100,68.1,> 100,29.2,47.6,33.9
COC1/C=C/C(C)C(C(C)C(OC)C(C)CCC(=O)C(C)C(CCC(=O)O)OC)OC(=O)/C=C/C=C(\C)CC(OC)CC2=CC(=O)O[C@@H](C(C)C(OC)CC(OC)/C=C/C(C)C(OC)C1)[C@H]2O (stereo not given in full),> 4.14,> 5,> 5,1.36,> 5,> 5,> 5,1.89,> 5
COC(=O)C(COC(=O)/C=C/c1ccc(OC(C)=O)c(OC(C)=O)c1)OC(=O)/C=C/c1ccc(OC(C)=O)c(OC(C)=O)c1 (stereo not given),11.1,23.5,> 100,47.6,21.7,> 100,30,26,43.4
CC(C)(C)N1Cc2ccccc2/C(=C/Sc2ccccc2)C1=O,> 39.4,27.4,41.2,27.8,21.8,37,39,31.4,34.4
CC1(C)[C@@H]2C[C@H]1c1cnc(-c3ccccn3)cc1C2[C@@H]1c2cc(-c3ccccn3)ncc2[C@@H]2C[C@H]1C2(C)C (stereo not given in full),> 100,> 100,> 100,> 100,> 100,> 100,> 100,> 100,> 100
COc1ccc(NC2Oc3cc4c(cc3C(c3cc(OC)c(O)c(OC)c3)C2C)OCO4)cc1 (stereo not given),,> 100,,> 100,,11.3,39,6.72,21.7
Nc1nc2c(ncn2C2C=CC(CO)O2)c(=O)[nH]1 (stereo not given),> 100,> 100,> 100,> 100,> 100,> 100,> 100,> 100,
COC(=O)c1cncc2c1CC1C3(C(=O)OC)C=NC(C4C(CO)=CCC43)C21C (stereo not given),> 100,> 100,> 100,> 100,> 100,> 100,> 100,> 100,> 100
Cc1ccc(O)c(C2=NNC(c3cccc(Br)c3)C2)c1 (stereo not given),> 100,> 100,> 100,92.7,> 100,35.1,> 100,> 100,> 100
O=C(O)c1ccc(Nc2nc3cc(C(F)(F)F)ccc3nc2C(=O)O)cc1,> 100,> 100,> 100,,> 100,> 100,> 100,> 100,> 100
COc1ccc(OC)c2cc(Cc3ccc(N(C)C)cc3)c(=O)c(Cc3ccc(N(C)C)cc3)cc12,,> 100,87.7,> 100,> 100,> 100,> 100,,> 100
O=C1NC(N/N=C\c2ccccc2)=N/C1=C/c1ccc(Cl)cc1,40.1,> 100,51.4,,> 100,62.7,> 100,82.9,36.9
COC(=O)C(C)Sc1nc2cc(Cl)ccc2s1 (stereo not given),,> 100,> 100,> 100,> 100,> 100,> 100,,> 100
CSc1ncc2c(n1)-c1ccccc1OC2N1CCCC1 (stereo not given),> 100,> 100,> 100,> 100,> 100,> 100,> 100,> 100,
CCOC(=O)c1sc2c(c1OC(=O)c1ccccc1)c(=O)n(-c1ccccc1)c(=S)n2-c1ccccc1,,> 100,75.6,79.2,,> 100,> 100,,74.5
